# Laboratory results as given in US20180147206A1, “ACTIVATION OF NEURONAL STORE-OPERATED CALCIUM ENTRY PATHWAY FOR THE TREATMENT OF ALZHEIMER'S DISEASE” (The Board of Regents of the University of Texas System, priority 2015, published 2018).
# What was measured:
# TRPC6 = target: T1, TRPC6 (Homo sapiens, UniProt Q9Y210); test: Fura-2 Ca2+ imaging in TRPC6-transfected HEK293 cells; assay type: cell-based; conditions: for potentiation of OAG-induced responses: preincubation 1 μM, 100 μM OAG
# T1 construct: expressed in transfected cells; host or cells: HEK293
# T1 sequence (Q9Y210 1-931): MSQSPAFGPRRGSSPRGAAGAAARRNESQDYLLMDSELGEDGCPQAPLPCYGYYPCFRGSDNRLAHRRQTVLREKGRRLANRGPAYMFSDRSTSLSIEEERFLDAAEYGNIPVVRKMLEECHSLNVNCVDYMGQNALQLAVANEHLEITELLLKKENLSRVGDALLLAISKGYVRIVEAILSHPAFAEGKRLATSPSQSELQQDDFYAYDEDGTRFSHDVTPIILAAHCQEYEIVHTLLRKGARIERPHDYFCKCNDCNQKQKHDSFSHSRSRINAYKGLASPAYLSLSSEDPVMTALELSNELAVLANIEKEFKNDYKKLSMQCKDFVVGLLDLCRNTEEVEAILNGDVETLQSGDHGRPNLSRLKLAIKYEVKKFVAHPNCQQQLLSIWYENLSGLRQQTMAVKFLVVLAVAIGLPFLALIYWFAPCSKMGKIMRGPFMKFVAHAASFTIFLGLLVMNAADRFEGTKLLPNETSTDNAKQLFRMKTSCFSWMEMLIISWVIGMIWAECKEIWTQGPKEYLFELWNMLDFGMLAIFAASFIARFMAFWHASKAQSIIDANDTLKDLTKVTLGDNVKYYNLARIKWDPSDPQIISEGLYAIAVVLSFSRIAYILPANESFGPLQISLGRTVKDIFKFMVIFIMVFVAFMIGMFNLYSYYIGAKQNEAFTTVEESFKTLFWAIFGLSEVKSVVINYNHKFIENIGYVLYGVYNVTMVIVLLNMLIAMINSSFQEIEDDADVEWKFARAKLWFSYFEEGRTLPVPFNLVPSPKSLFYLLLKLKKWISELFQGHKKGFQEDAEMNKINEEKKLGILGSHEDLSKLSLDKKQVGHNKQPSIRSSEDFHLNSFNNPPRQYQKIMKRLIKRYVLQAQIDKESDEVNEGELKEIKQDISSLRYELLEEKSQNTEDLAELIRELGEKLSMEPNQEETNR
# [1] = tested on: mushroom spines in hippocampal CA1 neurons; test: Dendritic spine analysis in mice hippocampus after i.p. treatment; assay type: in vivo, mouse; conditions: i.p. 10 mg/kg for 10 weeks
# hippocampal LTP = test: Hippocampal slice field recordings (LTP); assay type: cell-based, mouse; conditions: pre-treatment 300 nM for 2-3 hours
# Experimental: FIGS. 6A-E. NSN21778 rescues mushroom spine and synaptic plasticity defects in AD hippocampal slices. (FIG. 6A) Confocal images of CA1 hippocampal slices from 6 month-old WTGFP, PS1KIGFP, and APPKIGFP mice. The images are shown for untreated slices (CON) and for slices treated with 300 nM NSN21778 (+NSN) for 3.5 hrs prior to fixation. Scale bar is 10 μm. (FIG. 6B) The fraction of mushroom spines in hippocampal CA1 neurons from 6 month-old WTGFP, PS1KIGFP, and APPKIGFP mice. The results are shown for untreated slices (CON) and for slices treated with 300 nM NSN21778 (+NSN). The average fraction of mushroom spines for each group of cells is shown as mean±SE (n≥31 neurons). ***, p <0.001. (FIG. 6C) Sample fEPSP traces are shown for 6 month-old WT and APPKI hippocampal slices prior to stimulation (basal), immediately after tetanus stimulation (induction) and 1 h after tetanus stimulation (after 1 hr). The results are shown for untreated slices and for slices pre-treated with 300 nM NSN21778 (+NSN) for 2-3 hours prior to tetanus stimulation. […]
# Hippocampal slice field recordings. […] Field potentials (FPs) were recorded with extracellular recording electrodes (1 MΩ) filled with ACSF and placed in stratum radiatum of area CA1. […] The initial slope of the FPs was used to measure stability of synaptic responses and quantify the magnitude of LTP. […]
compound,measurement,setting,value
"CC(=O)Nc1ccc(CCNc2ncnc3ccc(N)cc23)cc1 [NSN21778, N-{4-[2-(6-Amino-quinazolin-4-ylamino)-ethyl]-phenyl}-acetamide]",SOC in conditions of store depletion,TRPC6; GFP or TRPC6 HEK293 cells preincubated in Ca2+-free media with 1 μM Tg (data not shown),no additional effect
same,Ca2+ influx,"TRPC6; TRPC6-transfected HEK293 cells, 1 μM, 2 mM Ca2+",did not trigger Ca^2+ influx
same,potentiation of OAG-induced responses,"TRPC6; TRPC6-transfected cells, stores partially depleted (0.1 mM Ca2+)",significant potentiation
same,potentiation of OAG-induced responses,"TRPC6; control GFP cells, stores partially depleted",not in control GFP cells
same,mushroom spine deficiency in vivo,[1]; PS1KIGFP and APPKIGFP mice,rescue of mushroom spine deficiency
same,mushroom spines in vivo,[1]; WTGFP mice,no effect
same,LTP defect,"hippocampal LTP; APPKI slices, 6 month-old",completely rescued
same,LTP,hippocampal LTP; wild-type slices,no significant effect
